Molecules are shown by their SMILES. “Also recorded” adds a separate entry of the source. Read-outs that look alike come from different tables or passages of the source.

Data on two compounds can be found in publication PMC11994961, “In Vivo pharmacokinetic interactions of ribociclib with rivaroxaban and apixaban in rats: implications for increased drug exposure and dose adjustments” (Frontiers in Pharmacology, 2025).

For data set [1], the system named is CYP2J2. On the set-up: method as in Mueck et al., 2013. The following applies: ref Mueck et al., 2013; cited from earlier work.
Data set [2] is described as follows: Pharmacokinetic study of ribociclib in rats, alone and after rivaroxaban or apixaban (UPLC-MS/MS plasma levels). The class given is in vivo, Sprague-Dawley rats. The note with it: for Cmax / AUC(0-inf) / AUC(0-t) / Tmax / half-life / CL/F / MRT inf / MRT last / Vd/F: Sprague-Dawley, rat, plasma, 60 mg/kg; for CL/F: read-out: CLz/F (converted); for MRT inf: read-out: MRT0- ∞; for MRT last: read-out: MRT0-t; for Vd/F: read-out: Vz/F. The protocol: Experimental animals were randomly divided into nine groups (n = 6, Table 1). Ribociclib was suspended in methylcellulose (MC), rivaroxaban was prepared in hydroxypropyl methylcellulose (HPMC), and apixaban was suspended in 5% DMSO in water. To achieve steady-state blood concentrations, a drug typically requires five to seven half-lives. Based on this principle, ribociclib was administered orally for eight consecutive days, while rivaroxaban and apixaban were administered orally for five consecutive days to ensure steady-state concentrations were reached before further analysis. Approximately 0.1 mL of blood was collected into heparinized tubes via the orbitalat specified time points before and after the final drug administration. […] Blood samples were centrifuged at 3,500 rpm for 10 min, and the supernatant was collected and stored at −80°C until processing for UPLC-MS/MS. Apixaban and rivaroxaban concentrations in plasma samples were determined using our previously established UPLC-MS/MS method ([Wang et al., 2023]). Ribociclib concentrations were quantified using an LC-30A UPLC system (Shimadzu, Kyoto, Japan) coupled with a Sciex Triple Quad 5500 tandem quadrupole mass spectrometer (AB Sciex, Framingham, MA, United States) equipped with an electrospray ionization interface. Chromatographic separation was performed using a Welch Boltimate column (2.1 mm × 100 mm, 2.7 μm) maintained at 40°C. The mobile phase was composed of water containing 0.1% formic acid (phase A) and acetonitrile (phase B). The flow rate was held constant at 0.3 mL/min. […] The injection volume was 1 μL. The mass spectrometer operated in positive ion mode and multiple reaction monitoring (MRM) mode for detection and quantification. The monitored transitions of precursors to product ions were as follows: 441.3→332.1 for ribociclib-d6 and 435.3.→322.1 for ribociclib (Figure 1). The mass spectrometer conditions, including delustering potential (DP) and collision energy (CE) of the compounds, are shown in Table 2. Other parameters of the mass spectrometer were as follows: ion source gas 160.0 psi; ion source gas 2,50.0 psi; curtain gas, 25.0 psi. The source temperature was 500°C and the ion spray voltage was 5,500 V. A 50 µL plasma sample was mixed with 5 µL of the IS working solution, followed by the addition of 150 µL of acetonitrile. The mixture was vortexed for 2 min and then centrifuged at 12,000 rpm for 10 min. Next, 70 µL of the supernatant was collected and mixed with 70 µL of 50% (v/v) of acetonitrile in water. The mixture was vortexed for 1 min, and then 1 µL was injected into the UPLC-MS/MS system for analysis. […] The area under the concentration–time curve (AUC), maximum plasma concentration (Cmax), time to maximum plasma concentration (Tmax), the time required to eliminate half of the plasma drug concentration (t1/2), clearance of drug plasma volume per unit time (CLz/F), apparent volume distribution (Vz/F), mean residence time (MRT) and the absorption rate constant (Ka) are all expressed as mean ± standard deviation (SD). SPSS 25.0 statistical software (SPSS Inc., Chicago, IL, United States) was applied to statistically analyze the mainpharmacokinetic parameters. Shapiro-Wilk test was used to assess whether the data were normally distributed, t test was used for parameters conforming to the normal distribution, and Mann-Whitney U test was used for parameters not conforming to the normal distribution. Statistical comparisons were conducted using a analysis of variance, t-test or nonparametric rank-sum test depending on the data type.

Setting [3] is: po, rats, RIBO 60 mg/kg after API 0.5 mg/kg for 5 days.
Where [4] appears, read: po, rats, RIBO 60 mg/kg after RIVA 2 mg/kg for 5 days.
The mark [5] stands for this setting: po, rats, oral RIBO 60 mg/kg alone.

`O=C(NC[C@H]1CN(c2ccc(N3CCOCC3=O)cc2)C(=O)O1)c1ccc(Cl)s1` [RIVA, rivaroxaban]: the “share of total elimination by CYP2J2” value in data set [1] is on record as “approximately 14%”.

As usually defined, the Cmax is the peak of the concentration-time curve. Usually AUC(0-inf) stands for total exposure, with the tail of the curve extrapolated. Usually AUC(0-t) stands for exposure summed from dosing to a finite time, without extrapolation to infinity. By Tmax is commonly meant the time at which the peak concentration occurs. By half-life is commonly meant how long it takes for the measured level to halve. High values mean slow loss, low ones fast loss. Regarding `CN(C)C(=O)c1cc2cnc(Nc3ccc(N4CCNCC4)cn3)nc2n1C1CCCC1` [RIBO, ribociclib], the highest concentration (Cmax) in data set [2] (oral, rats administered 60 mg/kg) was around 1500 ng/mL. In data set [2] (setting [3]), the AUC(0-inf) is 25200 ng·h/mL, the AUC(0-t) was 24500 ng·h/mL, the concentration peaked (Cmax) at 2080 ± 400 ng/mL and the Tmax amounted to 4.33 ± 1.37 h. Moreover, in data set [2] (setting [3]), the half-life is 8.25 ± 2.87 h, the CL/F is 40.2 mL/min/kg, the MRT inf was determined as 11 ± 2.83 h and the MRT last came out at 9.71 ± 1.15 h. In addition, the Vd/F in data set [2] (setting [3]) came out at 28.3 ± 8.33 L/kg. In data set [2] (setting [4]), the AUC(0-inf) worked out at 21500 ng·h/mL, the AUC(0-t) was found to be 21400 ng·h/mL, the Cmax is 1600 ng/mL and the Tmax came out at 4.33 ± 0.52 h. For the same compound, in data set [2] (setting [4]), the half-life is 6.13 ± 1.41 h, the CL/F is 47.2 mL/min/kg, the MRT inf was determined as 10.1 ± 2.16 h and the MRT last was 9.77 ± 1.74 h. For the same compound, the Vd/F in data set [2] (setting [4]) was determined as 24.7 ± 4.85 L/kg. Moreover, in data set [2] (setting [5]), the AUC(0-inf) is 20800 ng·h/mL, the AUC(0-t) was 20300 ng·h/mL, the Cmax worked out at 1620 ng/mL and the Tmax is 2.4 ± 0.89 h. Besides, in data set [2] (setting [5]), the half-life is 7.87 ± 4.17 h, the CL/F is 49.3 mL/min/kg, the MRT inf stood at 11.8 ± 4.35 h and the MRT last was 10.1 ± 1.79 h. Besides, the Vd/F in data set [2] (setting [5]) is 35.5 ± 26.3 L/kg. The “changes in the pharmacokinetic parameters” value in data set [2] (rats, RIBO 60 mg/kg after multiple doses of apixaban vs alone) was “no significant changes; also recorded: did not alter”. Further, the “changes in the pharmacokinetic parameters” value in data set [2] (rats, RIBO 60 mg/kg after multiple doses of rivaroxaban vs alone) is “no significant changes; also recorded: did not alter”. Also, in data set [2] (rats, RIBO 60 mg/kg, apixaban group vs alone), the “slight increase in Cmax” value is given as “not statistically significant”.
